Key:
[1] = target: T1, B. fragilis xylose isomerase (SEQ. ID NO: 4) (Bacteroides fragilis, UniProt Q5LCV9); test: xylitol inhibition of xylose isomerase activity (B. fragilis XI, SEQ. ID NO: 4); assay type: biochemical; details: 12.5 mM xylitol; percent of activity obtained in the absence of xylitol
T1 construct: ID NO: 4 in comparison to its E. coli orthologue
Experimental: (§1) Activity is reported as the percent of activity obtained in the absence of xylitol.
(§2) A distinguishing feature of the B. fragilis isomerases described herein is that enzymes are less inhibited by xylitol than orthologue XI sequences from other organism. […] ID NO: 4 in comparison to its E. coli orthologue. At 12.5 mM xylitol, the E. coli XI activity is >97% inhibited, in contrast to the B. fragilis XI, which retains at least 30% of its activity at the same xylitol concentration.

[2] = target: E. coli xylose isomerase (Escherichia coli, UniProt P00944); test: xylitol inhibition of xylose isomerase activity (E. coli XI); assay type: biochemical; details: read-out: E. coli XI activity inhibited
Chain of E. coli xylose isomerase (P00944 whole entry): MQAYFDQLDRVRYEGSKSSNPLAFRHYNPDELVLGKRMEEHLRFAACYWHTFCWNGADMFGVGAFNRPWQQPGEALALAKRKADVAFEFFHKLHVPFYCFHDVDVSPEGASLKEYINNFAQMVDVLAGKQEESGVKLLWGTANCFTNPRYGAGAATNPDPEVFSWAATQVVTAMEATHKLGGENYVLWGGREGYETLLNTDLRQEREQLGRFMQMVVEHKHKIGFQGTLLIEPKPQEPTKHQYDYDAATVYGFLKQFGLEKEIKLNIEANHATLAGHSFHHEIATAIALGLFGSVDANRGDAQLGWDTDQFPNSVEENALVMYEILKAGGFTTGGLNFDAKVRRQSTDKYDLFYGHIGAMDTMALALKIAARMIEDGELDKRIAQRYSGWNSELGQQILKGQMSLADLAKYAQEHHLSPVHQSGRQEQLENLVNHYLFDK
Experimental: as §1, §2

T1 sequence (Q5LCV9 whole entry, looked up, natural form): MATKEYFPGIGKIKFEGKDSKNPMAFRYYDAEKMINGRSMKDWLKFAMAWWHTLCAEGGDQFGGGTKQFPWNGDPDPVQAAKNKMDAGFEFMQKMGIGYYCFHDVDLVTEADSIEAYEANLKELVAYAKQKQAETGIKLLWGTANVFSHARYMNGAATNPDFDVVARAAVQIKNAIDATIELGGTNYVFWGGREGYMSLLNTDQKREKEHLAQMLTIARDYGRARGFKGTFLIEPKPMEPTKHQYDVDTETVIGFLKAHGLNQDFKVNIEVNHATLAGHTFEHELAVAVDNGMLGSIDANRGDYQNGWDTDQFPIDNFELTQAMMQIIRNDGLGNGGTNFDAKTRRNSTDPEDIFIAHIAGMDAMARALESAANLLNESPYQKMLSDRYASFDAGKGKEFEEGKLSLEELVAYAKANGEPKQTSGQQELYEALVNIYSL

In the case of `OC[C@@H](O)[C@H](O)[C@@H](O)CO` [xylitol], the “B. fragilis XI activity retained” value [1] is reported as “at least 30%” and the inhibition at 12500 µM [2] is reported as greater than 97%.

— patent publication US9365857B2, “Xylose isomerase and xylitol dehydrogenase combination for xylose fermentation to ethanol and B. fragilis xylose isomerase” (Archer Daniels Midland Company, priority 2010, dated 2016)
